Assay: Log of liquid dish neat product liquid-air partition coefficient
Format: physicochemical
Settings: for Log of liquid dish neat product liquid-air partition coefficient (Comment Code K/L): code letter within the Comment Code cell; for Log of liquid dish neat product liquid-air partition coefficient (Comment Code): code letters K/L of the Comment Code

| SMILES | Log of liquid dish neat product liquid-air partition coefficient (Comment Code K/L) | Comment Code: Log of liquid dish neat product liquid-air partition coefficient | Log of liquid dish neat product liquid-air partition coefficient (Comment Code) |
| --- | --- | --- | --- |
| CCCCCCCCCCOC(=O)CC [Material 471] | K (Log of liquid dish neat product liquid-air partition coefficient greater than or equal to 7) | – | – |
| CCCCCCCCCC(OCC)OCC [Material 473] | K (Log of liquid dish neat product liquid-air partition coefficient greater than or equal to 7) | – | – |
| OC1CCC2CCCCC2C1 (centres unmarked) [Material 474] | K (Log of liquid dish neat product liquid-air partition coefficient greater than or equal to 7) | – | – |
| CC=CC(=O)OC(C)C1CCCCC1 (centres unmarked) [Material 475] | K (Log of liquid dish neat product liquid-air partition coefficient greater than or equal to 7) | – | – |
| CC(C=O)Cc1ccc(C(C)C)cc1 (centres unmarked) [Material 478] | K (Log of liquid dish neat product liquid-air partition coefficient greater than or equal to 7) | – | – |
| O=C1CCCCCCCCCCCCCC1 [Material 480] | K (Log of liquid dish neat product liquid-air partition coefficient greater than or equal to 7) | – | – |
| CCCC(=O)OC1CC2CC1C1CC=CC21 (centres unmarked) [Material 484] | K (Log of liquid dish neat product liquid-air partition coefficient greater than or equal to 7) | K (Log of liquid dish neat product liquid-air partition coefficient greater than or equal to 7) | – |
| CC1(C)CCCC2=C1CC(C=O)CC2 (centres unmarked) [Material 486] | K (Log of liquid dish neat product liquid-air partition coefficient greater than or equal to 7) | – | – |
| CC(C)C(=O)OC1CC2CC1C1C=CCC21 (centres unmarked) [Material 487] | K (Log of liquid dish neat product liquid-air partition coefficient greater than or equal to 7) | K (Log of liquid dish neat product liquid-air partition coefficient greater than or equal to 7) | – |
| C=CC1(C)Cc2occ(C)c2CC1C(=C)C (centres unmarked) [Material 488] | K (Log of liquid dish neat product liquid-air partition coefficient greater than or equal to 7) | K (Log of liquid dish neat product liquid-air partition coefficient greater than or equal to 7) | – |
| CC(C)c1ccc(CO)cc1 [Material 491] | K (Log of liquid dish neat product liquid-air partition coefficient greater than or equal to 7) | – | – |
| COc1cc(C)ccc1O [Material 492] | – | K (Log of liquid dish neat product liquid-air partition coefficient greater than or equal to 7) | – |
| c1ccc2occc2c1 [Material 493] | K (Log of liquid dish neat product liquid-air partition coefficient greater than or equal to 7) | – | – |
| CC(C)(O)CCC1CCCCC1 [Material 496] | – | K (Log of liquid dish neat product liquid-air partition coefficient greater than or equal to 7) | – |
| c1ccc(CCCc2ccccn2)cc1 [Material 497] | K (Log of liquid dish neat product liquid-air partition coefficient greater than or equal to 7) | – | – |
| CCCCCCCCCCCC#N [Material 498] | K (Log of liquid dish neat product liquid-air partition coefficient greater than or equal to 7) | – | – |
| C=CC(C)(C#N)Cc1ccccc1 (centres unmarked) [Material 504] | – | K (Log of liquid dish neat product liquid-air partition coefficient greater than or equal to 7) | – |
| CC(=CC#N)CCc1ccccc1 [Material 505] | K (Log of liquid dish neat product liquid-air partition coefficient greater than or equal to 7) | – | – |
| CC(C)=CCCC(C)=CC1OCC(C)O1 (centres unmarked) [Material 519] | K (Log of liquid dish neat product liquid-air partition coefficient greater than or equal to 7) | – | – |
| COC(C=C(C)CCC=C(C)C)OC [Material 520] | K (Log of liquid dish neat product liquid-air partition coefficient greater than or equal to 7) | – | – |
| CCOC(C=C(C)CCC=C(C)C)OCC [Material 521] | K (Log of liquid dish neat product liquid-air partition coefficient greater than or equal to 7) | – | – |
| C/C=C\c1ccc(O)c(OC)c1 [Material 528] | – | K (Log of liquid dish neat product liquid-air partition coefficient greater than or equal to 7) | – |
| C=C(C)C1CC=C(C)C(O)C1 (centres unmarked) [Material 531] | K (Log of liquid dish neat product liquid-air partition coefficient greater than or equal to 7) | – | – |
| CC/C=C\CCOC(=O)C/C=C\CC [Material 534] | K (Log of liquid dish neat product liquid-air partition coefficient greater than or equal to 7) | – | – |

| SMILES | Log of liquid dish neat product liquid-air partition coefficient (Comment Code K/L) | Comment Code: Log of liquid dish neat product liquid-air partition coefficient | Log of liquid dish neat product liquid-air partition coefficient (Comment Code) |
| --- | --- | --- | --- |
| C/C=C(\C)C(=O)OCC/C=C\CC [Material 536] | – | K (Log of liquid dish neat product liquid-air partition coefficient greater than or equal to 7) | – |
| CC/C=C\CCOC(=O)c1ccccc1 [Material 541] | K (Log of liquid dish neat product liquid-air partition coefficient greater than or equal to 7) | – | – |
| CC/C=C\C/C=C\CCO [Material 546] | K (Log of liquid dish neat product liquid-air partition coefficient greater than or equal to 7) | – | – |
| CCC(=O)OCC=Cc1ccccc1 [Material 548] | K (Log of liquid dish neat product liquid-air partition coefficient greater than or equal to 7) | – | – |
| N#CC=Cc1ccccc1 [Material 549] | – | K (Log of liquid dish neat product liquid-air partition coefficient greater than or equal to 7) | – |
| CC(C)C(=O)OCC=Cc1ccccc1 [Material 550] | K (Log of liquid dish neat product liquid-air partition coefficient greater than or equal to 7) | – | – |
| O=COCC=Cc1ccccc1 [Material 551] | K (Log of liquid dish neat product liquid-air partition coefficient greater than or equal to 7) | – | – |
| CC(=O)OCC=Cc1ccccc1 [Material 553] | K (Log of liquid dish neat product liquid-air partition coefficient greater than or equal to 7) | – | – |
| O=C/C=C/c1ccccc1 [Material 554] | – | K (Log of liquid dish neat product liquid-air partition coefficient greater than or equal to 7) | – |
| OCC=Cc1ccccc1 [Material 555] | K (Log of liquid dish neat product liquid-air partition coefficient greater than or equal to 7) | – | – |
| N#C/C=C/c1ccccc1 [Material 556] | – | K (Log of liquid dish neat product liquid-air partition coefficient greater than or equal to 7) | – |
| Cc1cc(O)cc(C)c1Cl [Material 557] | – | K (Log of liquid dish neat product liquid-air partition coefficient greater than or equal to 7) | – |
| C=CCCC(=O)/C=C/C1C(C)=CCCC1(C)C (centres unmarked) [Material 559] | K (Log of liquid dish neat product liquid-air partition coefficient greater than or equal to 7) | – | – |
| CC1=C(CCC(C)C=O)C(C)(C)CCC1 (centres unmarked) [Material 560] | K (Log of liquid dish neat product liquid-air partition coefficient greater than or equal to 7) | – | – |
| CC(=O)c1cc(C(C)(C)C)cc2c1CCC2(C)C [Material 563] | – | – | K (Log of liquid dish neat product liquid-air partition coefficient greater than or equal to 7) |
| COC1(C)CCC23CC1C(C)(C)C2CCC3C (centres unmarked) [Material 565] | – | K (Log of liquid dish neat product liquid-air partition coefficient greater than or equal to 7) | K (Log of liquid dish neat product liquid-air partition coefficient greater than or equal to 7) |
| CC1CCC2C(C)(C)C3CC12CCC3(C)OC=O (centres unmarked) [Material 566] | – | K (Log of liquid dish neat product liquid-air partition coefficient greater than or equal to 7) | K (Log of liquid dish neat product liquid-air partition coefficient greater than or equal to 7) |
| CC(=O)O[C@]1(C)CC[C@@]23C[C@@H]1C(C)(C)[C@@H]2CC[C@H]3C [Material 567] | – | K (Log of liquid dish neat product liquid-air partition coefficient greater than or equal to 7) | K (Log of liquid dish neat product liquid-air partition coefficient greater than or equal to 7) |
| CC1=CCCC2(C)OC2CCC(C)=CCC1 (centres unmarked) [Material 568] | – | – | K (Log of liquid dish neat product liquid-air partition coefficient greater than or equal to 7) |
| C[C@@H]1CC[C@H]2C(C)(C)[C@H]3C[C@@]12CC[C@@]3(C)O [Material 569] | – | K (Log of liquid dish neat product liquid-air partition coefficient greater than or equal to 7) | K (Log of liquid dish neat product liquid-air partition coefficient greater than or equal to 7) |
| CC1=CCC(C23CCCC(C)(C2)OC3)C1(C)C (centres unmarked) [Material 570] | – | K (Log of liquid dish neat product liquid-air partition coefficient greater than or equal to 7) | K (Log of liquid dish neat product liquid-air partition coefficient greater than or equal to 7) |
| CC1C(C)(C)C2=C(C(=O)CCC2)C1(C)C (centres unmarked) [Material 572] | – | – | K (Log of liquid dish neat product liquid-air partition coefficient greater than or equal to 7) |
| CC(=O)OC12CCCC(C)(CCC3C1CC3(C)C)C2 (centres unmarked) [Material 573] | – | K (Log of liquid dish neat product liquid-air partition coefficient greater than or equal to 7) | K (Log of liquid dish neat product liquid-air partition coefficient greater than or equal to 7) |

Source: US20170333591A9, “ABSORBENT ARTICLE COMPRISING MALODOR REDUCTION COMPOSITIONS” (The Procter & Gamble Company, priority 2014, published 2017)
